Measurements from publication PMC10731632, “Is Smaller Better? Cu^2+/Cu^+ Coordination Chemistry and Copper-64 Radiochemical Investigation of a 1,4,7-Triazacyclononane-Based Sulfur-Rich Chelator” (Inorganic Chemistry, 2023).
Blank lines part the entries; values can stand above or below the compound they belong to.

What was measured:
[1] = design: method as in PMID 35807404; conditions: after 24 h; cited from earlier work
[2] = Acidity constants (pKa) of the free ligands by pH-dependent 1H NMR; type: physicochemical; conditions: water, T = 25 °C
Procedure: (§1) Subsequently, the acid–base properties of NO3S and TACN-n-Bu were appraised. This study is a prior fundamental step before the investigation of complexation equilibria, since the proton represents a competitor of the metal ion for the interaction with the donor sites having Brønsted and Lewis acid–base properties, such as the amines of the TACN scaffold. […] The ionic strength (I) was adjusted using 0.15 M NaNO3. […] Therefore, additional pKa measurements were performed in a 1:1 water/methanol mixture, where no precipitation was detected. The acidity constants of TACN-n-Bu were derived upon analysis of the pH-potentiometric titrations data and pH-dependent ^1H NMR spectra in water (Figure S9B). The acidity constant values of both ligands are gathered in Table 1 along with the values of the unsubstituted macrocycle (i.e., TACN) and the methyl-functionalized one (i.e., 1,4,7-trimethyl-1,4,7-triazacyclonane, TACN-Me) derived from the literature.[30]
However, the chemical shift of all of the other signals manifests a noticeable pH dependence. The most pronounced variation is experienced by the NCH2 protons of the ring, possibly because the deprotonation processes led to a marked relaxation of the ring constraint caused by the H^+−H^+ repulsions. An analogous pH dependency of the chemical shifts is observed for TACN-n-Bu, even if in this case a slowed exchange between the differently protonated forms can be recognized from the enlargement of the signals around pH = pKa,2. The data were fitted, and the corresponding protonation constants (Table 1) were obtained.
Small additions (∼μL) of HNO3 and/or NaOH were used to adjust the pH. The latter was measured as for the potentiometric measurements. Under highly acidic conditions, the pH was computed from the HNO3 concentration (pH = −logCH^+). An excitation sculpting pulse scheme was used to suppress the water signal.[32]
(§2) The thermodynamic data were elaborated with the least-squares fitting program PITMAP as described in our previous works.[22]−[25] […]

[3] = Acidity constants (pKa) of the free ligands by pH-potentiometric titration; type: physicochemical; conditions: T = 25 °C, I = 0.15 M NaNO3
Procedure: as §1
Potentiometric titrations were conducted using an automated titrating system (Metrohm 765 Dosimat) equipped with a combined glass electrode (Hamilton pH 0–14) and a Metrohm 713 pH meter at T = 25 °C under a N2 atmosphere. NaNO3 (0.15 M) was used to fix the ionic strength. Stock solutions of NO3S and TACN-n-Bu were freshly prepared by dissolution of the synthesized compounds (∼10^–3 M). To avoid carbonatation phenomena and facilitate the dissolution, prestandardized HNO3 (CH^+ = 4CL) was coadded to each ligand solution. The solubility of the ligands in water depends on pH: minimal values occur at pH > 12, where the noncharged, totally deprotonated form predominates. All of the titrations were conducted as previously described.[22]−[25] […] Each titration was performed independently, at least in quintuplicate.
as §2

[4] = Formation kinetics of Cu2+ complexes by UV-vis spectroscopy (time to reach equilibrium); type: physicochemical; conditions: ambient temperature
Procedure: The formation kinetics of the Cu^2+ complexes with NO3S and TACN-n-Bu was qualitatively appraised by UV–vis spectroscopy at ambient temperature and different pH values to explore the time necessary to reach equilibrium. The spectrum of NO3S and TACN-n-Bu as free ligands is also reported for comparison purposes in Figure S15.
The formation kinetics of Cu^2+ complexes with NO3S and TACN-n-Bu was evaluated at different pH values at room temperature using UV–vis spectroscopy as previously reported.[24],[25] Briefly, equimolar amounts of Cu^2+ and the proper ligands were mixed, and the corresponding UV–vis spectra were recorded over time. The final concentrations were CCu^2+ = CL = 1.0 × 10^–4 M. The pH was controlled using the following buffers: HCl 10^–2 M (pH = 2), acetic acid/acetate (pH = 4), and 2-[4-(2-hydroxyethyl)piperazin-1-yl]ethanesulfonic acid (HEPES) (pH = 7.1).

[5] = Stability constants of Cu2+ complexes by UV-vis spectrophotometric batch titrations; pCu2+ calculation; type: physicochemical; conditions: for pCu^2+ (−log[Cu^2+]free): calculated at CL = 1 × 10^-5 M, CCu2+ = 1 × 10^-6 M, pH 7.4 from stability constants
Procedure: The stability constants (logβ) of the Cu^2+ complexes formed by NO3S and TACN-n-Bu were determined via UV–vis spectrophotometric titrations. Due to both the slow complexation kinetics observed at acidic pH (vide supra) and the high complex stability, batch titrations were conducted and heating was applied to speed up reaching the equilibrium condition.
The stability of the Cu^2+ complexes with TACN-n-Bu was assessed as well to investigate the role of the sulfanyl pendants in metal coordination. The UV–vis spectra recorded at different pH values are shown in Figure 3B, and the variation of the absorbance at λ = 295 nm is reported in Figure S16B. The pCu^2+ values were then computed (Figure 5): being defined as −log[Cu^2+]free, the higher the pCu^2+ value, the greater the stability of the considered metal–ligand complex.[23]−[25]
UV–vis pH-spectrophotometric titrations were carried out as previously reported by means of the out-of-cell method at T = 25 °C and I = 0.15 M NaNO3.[24],[25] Briefly, stock solutions of NO3S or TACN-n-Bu were mixed with Cu(NO3)2 in independent vials at a 1:1 metal-to-ligand ratio (CCu^2+ = CL = 1.0 × 10^–4 M). The pH was adjusted as described in the NMR experiments. The vials were sealed and heated to T = 60 °C in a thermostatic bath to ensure complete complexation and then cooled to ambient temperature. The absorption spectra were recorded, and equilibrium was considered to be reached when no variations in either the pH or the electronic spectra were detected over time.
The thermodynamic data were elaborated with the least-squares fitting program PITMAP as described in our previous works.[22]−[25] All equilibrium constants refer to the overall equilibrium pM^m+ + qH^+ + rL^l– ⇌ MpHqLr^pm+q–rl, where M = Cu^2+ and L = NO3S or TACN-n-Bu, respectively, and are defined as cumulative formation constants (logβpqr = [MpLqHr]/[M]^p[L]^q[H]^r).

[6] = Cyclic voltammetry of the copper complex of NO3S (Cu2+/Cu+ couple); Cu+ stability constant and pCu+; type: physicochemical
Procedure: To assess the ability of NO3S to stably bind Cu^+, cyclic voltammetry (CV) analysis was executed. The investigation was performed in aqueous solution at pH ranging from 3 to 12. The obtained cyclic voltammograms, reported in Figure 7, show a peak couple attributable to the quasi-reversible one-electron reduction–oxidation process of the Cu^2+/Cu^+ redox pair (Table S9). No variation of the voltammetric behavior after multiple reduction–oxidation cycles was observed either with time or with the scan rate (except for the increase in the current intensity, i). This outcome is extremely significant because it proves the ability of NO3S to stabilize both copper oxidation states throughout the investigated pH range on the time scale of the CV experiments.
As illustrated in Figure 7 and Table S9, a pH-dependent variation of the cyclic voltammograms was found. […]
Bulk electrolysis of the preformed Cu^2+-NO3S complexes was carried out in a two-compartment cell. […] The electrolysis was performed at a fixed potential equal to E = −0.35 V and monitored by linear scan voltammetry on a rotating disk electrode. […] No variations of the ^1H NMR spectra were detected after 2 days (tubes were stored under a normal atmosphere). […]

[7] = Solubility in water observed during pKa measurements; type: physicochemical; conditions: basic pH, precipitate observed
Procedure: as §1
Potentiometric titrations were conducted using an automated titrating system (Metrohm 765 Dosimat) equipped with a combined glass electrode (Hamilton pH 0–14) and a Metrohm 713 pH meter at T = 25 °C under a N2 atmosphere. NaNO3 (0.15 M) was used to fix the ionic strength. Stock solutions of NO3S and TACN-n-Bu were freshly prepared by dissolution of the synthesized compounds (∼10^–3 M). […]

[8] = design: method as in Bianchi et al. [30]; conditions: I = 0.1 M KNO3, T = 25 °C; ref Bianchi et al. [30]; cited from earlier work
[9] = I = 0.15 M NaNO3, read-out: pKa, H2L^2+ ⇌ H^+ + HL^+
[10] = UV-vis spectrophotometric titrations, T = 25 °C, I = 0.15 M NaNO3

Compound: CSCCN1CCN(CCSC)CCN(CCSC)CCN(CCSC)CC1 [DO4S, 1,4,7,10-tetrakis-[2-(methylsulfanyl)ethyl]-1,4,7,10-tetraazacyclododecane]
Percentage of intact [64Cu]Cu2+ complex in human serum [1]: 20%

pKa [2, 9]: 2.7 ± 0.02
pKa ([2]; I = 0.15 M NaNO3, read-out: pKa, HL^+ ⇌ H^+ + L): 12.72 ± 0.08
pKa ([3]; 1:1 water/methanol, pH potentiometry in 1:1 water/methanol, read-out: pKa, H2L^2+ ⇌ H^+ + HL^+): 2.33 ± 0.04
pKa ([3]; 1:1 water/methanol, pH potentiometry in 1:1 water/methanol, read-out: pKa, HL^+ ⇌ H^+ + L): 11.52 ± 0.01
logβ, Cu^2+ + L + H2O ⇌ [CuL(OH)]^+ + H^+ [5, 10]: 9.08 ± 0.03
logβ, Cu^2+ + L ⇌ [CuL]^2+ [5, 10]: 18.41 ± 0.05
pCu^2+ (−log[Cu^2+]free) [5]: 14.3
Increase in Cu2+ complex stability (pCu^2+) with respect to TACN-n-Bu ([5]; physiological pH): 6 orders of magnitude
pCu^+ ([6]; calculated at CL = 10^-5 M, CCu+ = 10^-6 M, pH = 7.4): 14.0
logβ, Cu^+ + L ⇌ [CuL]^+ ([6]; obtained from voltametric data, T = 25 °C, I = 0.15 M NaNO3): 18.36 ± 0.05
Solubility in water of the completely deprotonated neutral form (L) [7]: sparingly soluble
Compound: CSCCN1CCN(CCSC)CCN(CCSC)CC1 [NO3S]
Time to reach Cu2+ complexation equilibrium ([4]; pH = 1.0, equimolar metal-to-ligand 10^-4 M): ~14 h
Time to reach Cu2+ complexation equilibrium ([4]; pH = 4.0, equimolar metal-to-ligand 10^-4 M): ~0.167 h
Time to reach Cu2+ complexation equilibrium ([4]; pH = 7.1 (neutral), equimolar metal-to-ligand 10^-4 M): < 0.017 h

pCu^2+ (−log[Cu^2+]free) [5]: 18.2
Compound: O=C(O)CN1CCN(CC(=O)O)CCN(CC(=O)O)CC1 [NOTA, 1,4,7-triazacyclononane-1,4,7-triacetic acid, reference compound]

Compound: C1CNCCNCCN1 [TACN, 1,4,7-triazacyclononane]
pKa, H2L^2+ ⇌ H^+ + HL^+ [8]: 6.86
pKa, H3L^3+ ⇌ H^+ + H2L^2+ [8]: 2.1
pKa, HL^+ ⇌ H^+ + L [8]: 10.68

Compound: CN1CCN(C)CCN(C)CC1 [TACN-Me, 1,4,7-trimethyl-1,4,7-triazacyclonane]
pKa, H2L^2+ ⇌ H^+ + HL^+ [8]: 5.1
pKa, H3L^3+ ⇌ H^+ + H2L^2+ [8]: –0.4
pKa, HL^+ ⇌ H^+ + L [8]: 11.7

pKa [2, 9]: 5.04 ± 0.05
pKa ([3]; water, pH potentiometry, read-out: pKa, H2L^2+ ⇌ H^+ + HL^+): 5 ± 0.05
logβ, Cu^2+ + HL^+ ⇌ [CuHL]^3+ [5, 10]: 6.2 ± 0.1
logβ, Cu^2+ + HL^+ ⇌ [CuL]^2+ + H^+ [5, 10]: –0.04 ± 0.15
Compound: CCCCN1CCN(CCCC)CCN(CCCC)CC1 [TACN-n-Bu, 1,4,7-tris-n-butyl-1,4,7-triazacyclononane]
Time to reach Cu2+ complexation equilibrium ([4]; neutral pH, equimolar metal-to-ligand 10^-4 M): 8 h
